Assay results as given in ChEMBL document CHEMBL1124765, “Synthesis and biological properties of novel phosphotriesters: a new approach to the introduction of biologically active nucleotides into cells” (J Med Chem, 1990).

Experiment: pKa value was determined
Format: physicochemical

Row | Compound | pKa
1 | CC(=O)O[C@H]1C[C@H](n2cc(C)c(=O)[nH]c2=O)O[C@@H]1COP(=O)(OC[C@H]1O[C@@H](n2cc(C)c(=O)[nH]c2=O)C[C@@H]1OC(C)=O)Oc1ccccc1Cl | 8.48
2 | CC(=O)O[C@H]1C[C@H](n2cc(C)c(=O)[nH]c2=O)O[C@@H]1COP(=O)(OC[C@H]1O[C@@H](n2cc(C)c(=O)[nH]c2=O)C[C@@H]1OC(C)=O)Oc1ccc([N+](=O)[O-])cc1 | 7.16
